Where two headings read alike, the source gives them in different places.

The target of assay [1] is T1, GAK (amino acids Q25-N335) (Homo sapiens, UniProt O14976).
T1 construct: against GAK (amino acids Q25-N335); 6His (N, cleaved yes)
T1 sequence (O14976 25-335): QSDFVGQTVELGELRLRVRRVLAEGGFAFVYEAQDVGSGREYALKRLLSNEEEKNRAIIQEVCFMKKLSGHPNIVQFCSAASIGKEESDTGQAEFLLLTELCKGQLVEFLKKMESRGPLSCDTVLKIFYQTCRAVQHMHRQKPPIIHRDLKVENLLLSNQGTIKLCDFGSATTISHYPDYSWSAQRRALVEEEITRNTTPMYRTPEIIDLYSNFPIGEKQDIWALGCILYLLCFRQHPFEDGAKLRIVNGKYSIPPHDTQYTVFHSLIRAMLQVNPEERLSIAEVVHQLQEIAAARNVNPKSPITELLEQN
The experiment in a line: GAK pSENs assay. The format is biochemical. The method, then: The recombinant proteins were independently expressed in Escherichia coli BL21(DE3) cells cultured in Luria-Bertani (LB) medium until OD600 reached 0.6-0.8, then cooled to 15° C. and supplemented with 0.5 mM isopropyl 1-thio-D-galactopyranoside (IPTG) induce protein expression 16 h. Cells were harvested and resuspended in lysis buffer (50 mM HEPES pH 7.5, 500 mM NaCl, 5 mM imidazole, 5% glycerol, 0.5 mM Tris (2-carboxyethyl) phosphine (TCEP), cOmplete Protease Inhibitor Tablet (Roche)) and lysed by microfludics high pressure homogenizer (UH-06, Union-Biotech). Proteins were purified using […] chromatography (His FF column, Bestchrom) and eluted stepwise in binding buffer with 20-300 mM imidazole. Removal of the hexahistidine tag was performed at 4° C. overnight using recombinant TEV protease and reacted with BirA to obtain the corresponding biotinylated-AAK1, BIKE or GAK proteins. Further separated in the reverse Strep column (Strep-Tactin® XT, IBA). The Biotin elution sample was collected containing untagged biotinylated protein was then purified by Ion-exchange chromatography (Mono Q 10/100 GL, Cytiva) and Size-exclusion chromatography (HiLoad 16/600 Superdex 200 pg, Cytiva). The pure protein was stored in a storage buffer 50 mM HEPES (pH 7.5), 300 mM NaCl, 5% glycerol at −80° C. Protein were characterized by SDS-PAGE, LC-MS and aSEC.
This example describes one illustrative method for determining the IC50 of the compounds of the present invention against GAK (amino acids Q25-N335).

The next assay has as its target AAK1 (Homo sapiens, UniProt Q2M2I8). The assay can be described thus: pAP2M1 cell-based assay (in-cell Western). An excerpt:
pAP2M1 Cell-Based Assay (in-Cell Western):
The plate was read on Licor Odyssey CLx imaging system (LICOR) to acquire fluorescence intensity at 700 channel and 800 channel.
Data analysis: Fluorescence intensity at 700 channel served as internal standard and 800 channel were normalized with 700 channel.

Assay [2] has as its target T2, AAK1 (amino acids T27-A365) (Homo sapiens, UniProt Q2M2I8).
T2 construct: against AAK1 (amino acids T27-A365); 6His (N, cleaved yes)
The assay can be described thus: AAK1 pSENs assay. The format is biochemical. The method, boiled down: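 Biotinylated, tag-free AAK1 T27-A365 expressed in E. coli was held at 20 nM in enzyme solution (HEPES pH 7.5, 10 mM MgCl2, DTT, EGTA, Brij35, BSA) and preincubated with compound for 15 min at 25 °C. The reaction was started with an equal volume of substrate solution containing 30 uM AQT0759 peptide and 70 uM ATP. IC50 determined.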

Assay [3] addresses T3, BIKE (amino acids S38-E345) (K320A, K321A) (Homo sapiens, UniProt Q9NSY1, K320A/K321A).
T3 construct: against BIKE (amino acids S38-E345) (K320A, K321A); 6His (N, cleaved yes)
The experiment in a line: BIKE pSENs assay. The format is biochemical. The method in brief:
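E. coli-expressed, biotinylated, tag-free BIKE at 20 nM in HEPES pH 7.5 buffer with 10 mM MgCl2 preincubated with compound 15 min at 25° C. Reaction started with 30 uM AQT0759 sensor peptide and 40 uM ATP (concentrations before 1:1 mixing).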

[4] abbreviates: class symbols, read-out: GAK pSENs:IC50.
Setting [5] is: Hela cells co-transfected with AP2M1 and AAK1, 3 hr treatment, class symbols, read-out: AAK1 In-cell Western: IC50.
Where [6] appears, read: class symbols, read-out: AAK1 pSENs: EIC50.
[7] abbreviates: class symbols, read-out: BIKE pSENs: IC50.

T3 sequence (Q9NSY1 38-345 K320A/K321A): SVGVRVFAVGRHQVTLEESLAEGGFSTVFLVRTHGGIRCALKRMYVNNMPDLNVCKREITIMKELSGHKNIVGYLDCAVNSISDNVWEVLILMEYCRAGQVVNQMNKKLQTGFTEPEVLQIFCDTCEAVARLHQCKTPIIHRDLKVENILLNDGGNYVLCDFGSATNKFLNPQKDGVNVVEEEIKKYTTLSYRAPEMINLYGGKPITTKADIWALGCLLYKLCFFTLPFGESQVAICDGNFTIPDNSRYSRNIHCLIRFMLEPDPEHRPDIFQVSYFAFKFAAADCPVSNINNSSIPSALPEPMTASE
T2 sequence (Q2M2I8 27-365): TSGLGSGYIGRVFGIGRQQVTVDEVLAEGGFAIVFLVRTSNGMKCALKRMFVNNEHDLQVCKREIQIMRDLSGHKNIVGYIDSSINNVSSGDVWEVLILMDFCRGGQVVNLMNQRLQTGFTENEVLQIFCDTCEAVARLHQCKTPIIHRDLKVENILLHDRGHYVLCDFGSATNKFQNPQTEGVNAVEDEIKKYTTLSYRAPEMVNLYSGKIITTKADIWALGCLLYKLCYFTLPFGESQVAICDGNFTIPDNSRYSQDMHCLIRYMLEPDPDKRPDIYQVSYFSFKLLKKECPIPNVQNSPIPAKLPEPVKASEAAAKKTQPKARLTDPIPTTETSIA
Chain of AAK1 (Q2M2I8 whole entry): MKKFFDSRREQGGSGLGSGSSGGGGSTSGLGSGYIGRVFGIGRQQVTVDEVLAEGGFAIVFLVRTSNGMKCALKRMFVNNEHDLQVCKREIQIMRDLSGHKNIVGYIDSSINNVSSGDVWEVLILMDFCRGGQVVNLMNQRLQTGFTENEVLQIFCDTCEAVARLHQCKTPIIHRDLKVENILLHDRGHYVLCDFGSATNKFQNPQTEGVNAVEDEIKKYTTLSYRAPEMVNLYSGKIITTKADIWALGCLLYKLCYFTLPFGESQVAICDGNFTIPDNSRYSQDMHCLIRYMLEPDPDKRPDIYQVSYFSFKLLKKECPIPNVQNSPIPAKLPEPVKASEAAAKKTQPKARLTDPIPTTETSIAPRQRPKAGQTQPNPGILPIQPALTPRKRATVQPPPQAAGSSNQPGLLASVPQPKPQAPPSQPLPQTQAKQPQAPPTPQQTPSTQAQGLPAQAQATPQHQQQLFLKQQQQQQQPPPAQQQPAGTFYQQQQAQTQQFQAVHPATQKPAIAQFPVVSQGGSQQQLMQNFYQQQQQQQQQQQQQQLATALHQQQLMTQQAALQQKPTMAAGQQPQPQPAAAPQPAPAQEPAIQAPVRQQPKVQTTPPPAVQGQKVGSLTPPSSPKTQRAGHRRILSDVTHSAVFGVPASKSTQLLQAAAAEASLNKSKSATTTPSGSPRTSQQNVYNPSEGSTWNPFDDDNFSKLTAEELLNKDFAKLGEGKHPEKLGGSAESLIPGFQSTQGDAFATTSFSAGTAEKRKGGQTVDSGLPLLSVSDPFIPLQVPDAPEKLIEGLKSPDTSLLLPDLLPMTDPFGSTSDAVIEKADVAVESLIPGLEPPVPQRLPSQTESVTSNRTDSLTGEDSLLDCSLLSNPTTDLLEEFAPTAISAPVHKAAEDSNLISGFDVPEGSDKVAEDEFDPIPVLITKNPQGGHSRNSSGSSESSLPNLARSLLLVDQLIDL

On to `C[C@@]1(OC(=O)N2CCN(c3ccn4ncc(-c5cccnc5OC5CC5)c4n3)CC2)CCNC1` [Compound I-14, [(3R)-3-Methylpyrrolidin-3-yl]-4-[3-[2-(cyclopropoxy)-3-pyridyl]pyrazolo[1,5-a]pyrimidin-5-yl]piperazine-1-carboxylate], for which the IC50 was in the range of 501 to 1500 nM in assay [1] (setting [4]), 151 to 500 nM at AAK1 (setting [5]), 1 to 50 nM in assay [2] (setting [6]) and 151 to 500 nM in assay [3] (setting [7]).

As to `O=C1C[C@H](OC(=O)N2CCN(c3ccn4ncc(-c5cccnc5OC5CC5)c4n3)CC2)CN1CCOCc1ccccc1` [Compound I-37, [(3S)-1-(2-benzyloxyethyl)-5-oxo-pyrrolidin-3-yl]-4-[3-[2-(cyclopropoxy)-3-pyridyl]pyrazolo[1,5-a]pyrimidin-5-yl]piperazine-1-carboxylate], the IC50 in assay [1] (setting [4]) was in the range of 501 to 1500 nM; at AAK1 (setting [5]), 501 to 1500 nM; in assay [2] (setting [6]), 1 to 50 nM; in assay [3] (setting [7]) it was 501 to 1500 nM.

Take `C#C[C@@]1(OC(=O)N2CCN(c3ccn4ncc(-c5cccnc5OC5CC5)c4n3)CC2)CCNC1` [Compound I-16, [(3S)-3-Ethynylpyrrolidin-3-yl]-4-[3-[2-(cyclopropoxy)-3-pyridyl]pyrazolo[1,5-a]pyrimidin-5-yl]piperazine-1-carboxylate]: the IC50 in assay [1] (setting [4]) was 51 to 150 nM; on AAK1 (setting [5]), 1 to 50 nM; in assay [2] (setting [6]), 1 to 50 nM; in assay [3] (setting [7]) it was 1 to 50 nM.

With `c1cc2nc(N3CCNCC3)ccn2n1` [Compound I-105, 5-piperazin-1-ylpyrazolo[1,5-a]pyrimidine], the IC50 (in assay [1]; against AAK1; in assay [2]; in assay [3]) was more than 1500 nM throughout.

As for `CN1C[C@H](OC(=O)N2CCN(c3ccn4ncc(-c5cccnc5OC5CC5)c4n3)CC2)CC1=O` [Compound I-94], the IC50 in assay [1] was more than 1500 nM; at AAK1 (setting [5]) it was 501 to 1500 nM; in assay [2] (setting [6]) it was 1 to 50 nM; in assay [3] it was 151 to 500 nM.

As to `C#C[C@]1(OC(=O)N2CCN(c3ccn4ncc(-c5cccnc5OC5CC5)c4n3)CC2)CCNC1` [Compound I-15, [(3R)-3-Ethynylpyrrolidin-3-yl]-4-[3-[2-(cyclopropoxy)-3-pyridyl]pyrazolo[1,5-a]pyrimidin-5-yl]piperazine-1-carboxylate], the IC50 in assay [1] (setting [4]) lay within 151 to 500 nM; at AAK1 (setting [5]), 51 to 150 nM; in assay [2] (setting [6]), 1 to 50 nM; in assay [3] (setting [7]), 151 to 500 nM.

As to `COc1ncccc1-c1cnn2ccc(NCCN(C)C(=O)O[C@H]3CO[C@H]4OCC[C@H]43)nc12` [Compound I-70, (3R,3aS,6aR)-hexahydrofuro[2,3-b]furan-3-yl (2-((3-(2-methoxypyridin-3-yl)pyrazolo[1,5-a]pyrimidin-5-yl)amino)ethyl)(methyl)carbamate], the IC50 in assay [1] (setting [4]) lay within 501 to 1500 nM; on AAK1 (setting [5]) it was 501 to 1500 nM; in assay [2] (setting [6]) it was 1 to 50 nM; in assay [3] (setting [7]) it was 51 to 150 nM.

`CC(C)(C)OC(=O)N1CCC(N2C[C@H](OC(=O)N3CCN(c4ccn5ncc(-c6cccnc6OC6CC6)c5n4)CC3)CC2=O)CC1` [Compound I-31, (R)-1-(1-(tert-Butoxycarbonyl)piperidin-4-yl)-5-oxopyrrolidin-3-yl 4-(3-(2-cyclopropoxypyridin-3-yl)pyrazolo[1,5-a]pyrimidin-5-yl)piperazine-1-carboxylate]: the IC50 in assay [1] (setting [4]) was 501 to 1500 nM; at AAK1 (setting [5]), more than 1500 nM; in assay [2] (setting [6]), 151 to 500 nM; in assay [3] (setting [7]), 151 to 500 nM.

With `CC(C)Oc1ncccc1-c1cnn2ccc(N3CCN(C(=O)OC4(C)CCNC4)CC3)nc12` (centres unmarked) [Compound I-21-5, (3-methylpyrrolidin-3-yl)-4-[3-(2-isopropoxy-3-pyridyl)pyrazolo[1,5-a]pyrimidin-5-yl]piperazine-1-carboxylate], the IC50 lay in the range of 151 to 500 nM in assay [1] (setting [4]), 151 to 500 nM on AAK1 (setting [5]), 1 to 50 nM in assay [2] (setting [6]) and 151 to 500 nM in assay [3] (setting [7]).

Turning to `COc1cnc(OC2CC2)c(-c2cnn3ccc(N4CCN(C(=O)O[C@H]5CC(=O)N(C)C5)CC4)nc23)c1` [Compound I-87], the IC50 was 501 to 1500 nM in assay [1] (setting [4]), 151 to 500 nM on AAK1 (setting [5]), 1 to 50 nM in assay [2] (setting [6]) and 51 to 150 nM in assay [3] (setting [7]).

On to `Clc1cnn2ccc(N3CCNCC3)nc12` [Compound I-104, 3-chloro-5-piperazin-1-yl-pyrazolo[1,5-a]pyrimidine], for which the IC50 (in assay [1] (setting [4]); at AAK1 (setting [5]); in assay [2] (setting [6]); in assay [3] (setting [7])) was more than 1500 nM each time.

Take `CC(C)(C)OC(=O)NCCNc1ccc2ncc(-c3cccnc3OC3CC3)n2n1` [Compound I-129, tert-butyl N-[2-[[3-[2-(cyclopropoxy)-3-pyridyl]imidazo[1,2-b]pyridazin-6-yl]amino]ethyl]carbamate]: the IC50 was in the range of 151 to 500 nM in assay [1] (setting [4]), 501 to 1500 nM on AAK1 (setting [5]), 1 to 50 nM in assay [2] (setting [6]) and 51 to 150 nM in assay [3] (setting [7]).

For `COc1ncccc1-c1cnn2ccc(N3CCN(C(=O)OC4CCNC4)CC3)nc12` (centres unmarked) [Compound I-5, Pyrrolidin-3-yl4-[3-(2-methoxy-3-pyridyl)pyrazolo[1,5-a]pyrimidin-5-yl]piperazine-1-carboxylate], the IC50 in assay [1] (setting [4]) lay within 501 to 1500 nM; on AAK1 (setting [5]), 151 to 500 nM; in assay [2] (setting [6]) it was 1 to 50 nM; in assay [3] (setting [7]), 1 to 50 nM.

For `CN1C[C@@H](OC(=O)N2CCN(c3ccn4ncc(-c5cc(OC(F)(F)F)cnc5OC5CC5)c4n3)CC2)CC1=O` [Compound I-88], the IC50 in assay [1] (setting [4]) was 501 to 1500 nM; at AAK1 (setting [5]), more than 1500 nM; in assay [2] (setting [6]), 1 to 50 nM; in assay [3] (setting [7]), 151 to 500 nM.

Take `CN(CCNc1ccn2ncc(-c3cccnc3OC3CC3)c2n1)C(=O)O[C@H]1CO[C@H]2OCC[C@H]21` [Compound I-71, (3R,3aS,6aR)-hexahydrofuro[2,3-b]furan-3-yl (2-((3-(2-cyclopropoxypyridin-3-yl)pyrazolo[1,5-a]pyrimidin-5-yl)amino)ethyl)(methyl)carbamate]: the IC50 was in the range of 501 to 1500 nM in assay [1] (setting [4]), 501 to 1500 nM on AAK1 (setting [5]), 1 to 50 nM in assay [2] (setting [6]) and 501 to 1500 nM in assay [3] (setting [7]).

As to `C#CC1(OC(=O)N2CCN(c3ccn4ncc(-c5cccnc5OC5CC5)c4n3)CC2)CCNC1` (centres unmarked) [Compound I-16-7, 3-ethynylpyrrolidin-3-yl-4-(3-(2-cyclopropoxypyridin-3-yl)pyrazolo[1,5-a]pyrimidin-5-yl)piperazine-1-carboxylate], the IC50 in assay [1] (setting [4]) was 51 to 150 nM; at AAK1 (setting [5]), 1 to 50 nM; in assay [2] (setting [6]) it was 1 to 50 nM; in assay [3] (setting [7]), 51 to 150 nM.

Take `COc1ncccc1-c1cnn2ccc(N3CCN(C(=O)OC4(C)COC4)CC3)nc12` [RC-1, (3-methyloxetan-3-yl)-4-[3-(2-methoxy-3-pyridyl)pyrazolo[1,5-a]pyrimidin-5-yl]piperazine-1-carboxylate, reference compound]: the IC50 is 1050 nM in assay [1] (numeric values, read-out: GAK pSENs:IC50); 157 nM at AAK1 (Hela cells co-transfected with AP2M1 and AAK1, 3 hr treatment, numeric values, read-out: AAK1 In-cell Western: IC50); 8.68 nM in assay [2] (numeric values, read-out: AAK1 pSENs: EIC50); 84.6 nM in assay [3] (numeric values, read-out: BIKE pSENs: IC50).

For the origin of these results see patent US20250122207A1, “AP2 ASSOCIATED KINASE 1 INHIBITORS AND USES THEREOF” (Satellos Bioscience Inc., priority 2023, published 2025).
